# Assay results: patent publication US20250360145A1, “CSF-1R INHIBITORS AND USES THEREOF” (Myrobalan Therapeutics, Inc., priority 2022, published 2025)
# Where two headings read alike, the source gives them in different places.
# Columns and labels:
# CSF-1R = CSF-1R (Homo sapiens (Human), UniProt P07333); assay: Biochemical HTRF kinase assay, CSF-1R; conditions: Table 2; recombinant human CSF-1R;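 also: enzyme incubated with inhibitor plus a substrate and ATP mix for one hour at room temperature before HTRF detection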
# Chain of CSF-1R (P07333 20-972): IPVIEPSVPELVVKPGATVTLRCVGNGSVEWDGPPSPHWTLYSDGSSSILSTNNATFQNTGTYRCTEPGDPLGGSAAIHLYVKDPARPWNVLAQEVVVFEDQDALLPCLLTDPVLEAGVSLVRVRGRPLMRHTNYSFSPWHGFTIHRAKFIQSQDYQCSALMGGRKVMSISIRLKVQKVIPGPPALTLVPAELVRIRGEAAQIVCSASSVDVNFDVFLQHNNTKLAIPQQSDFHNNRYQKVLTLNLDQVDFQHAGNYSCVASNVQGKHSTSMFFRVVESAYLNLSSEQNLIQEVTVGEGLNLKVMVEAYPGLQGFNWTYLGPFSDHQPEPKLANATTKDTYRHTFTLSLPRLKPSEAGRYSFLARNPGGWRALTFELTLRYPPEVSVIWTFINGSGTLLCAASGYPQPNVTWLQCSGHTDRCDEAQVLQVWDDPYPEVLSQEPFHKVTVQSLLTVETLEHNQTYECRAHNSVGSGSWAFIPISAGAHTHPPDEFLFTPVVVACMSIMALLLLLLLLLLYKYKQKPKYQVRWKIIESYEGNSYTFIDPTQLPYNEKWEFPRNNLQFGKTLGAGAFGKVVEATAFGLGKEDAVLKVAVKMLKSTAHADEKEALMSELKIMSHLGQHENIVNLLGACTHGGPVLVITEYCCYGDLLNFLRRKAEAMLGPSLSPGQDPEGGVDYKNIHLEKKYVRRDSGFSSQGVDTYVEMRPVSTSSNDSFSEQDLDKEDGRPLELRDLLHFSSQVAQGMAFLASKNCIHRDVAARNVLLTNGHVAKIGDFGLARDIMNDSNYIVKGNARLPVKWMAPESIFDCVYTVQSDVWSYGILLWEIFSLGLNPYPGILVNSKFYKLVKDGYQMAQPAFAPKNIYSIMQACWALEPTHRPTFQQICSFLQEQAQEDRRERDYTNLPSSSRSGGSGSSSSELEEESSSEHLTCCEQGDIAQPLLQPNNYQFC
# [1] = tested on: Ba/F3_CSF-1R (stably expressing human CSF-1R kinase); assay: Cell proliferation assay, Ba/F3_CSF-1R; assay type: cell-based
# EOC2 cell = assay: Cell proliferation assay, EOC2; assay type: cell-based, mouse; conditions: EOC2 cells, 72 hours treatment, read-out: ECO2 EC50
# [2] = BaF3, 72 h, Ba/F3_CSF-1R cells, 72 hours treatment, read-out: CSF-1R BaF3 EC50
# [3] = Ba/F3_CSF-1R cells, 72 hours treatment, read-out: CSF-1R BaF3 EC50
SMILES,IC50 (CSF-1R),"EC50 [1, 2]","EC50 (EOC2 cell; Mus musculus, 72 h)","EC50 [1, 3]",EC50 (EOC2 cell),"EC50 ([1]; BaF3, 72 h, read-out: CSF-1R BaF3 EC50 (nM))"
COc1cnc2c(Cc3ccc4nc(C5CCOCC5)cn4c3)ccnc2c1 [Example 156],> 1 µM,> 1000 nM,> 1 µM,–,–,–
COc1ccc2c(Cc3ccc(OCc4ccc(C(F)(F)F)cc4)c(OC)c3)ccnc2c1 [Example 14],0.118 µM,157 nM,0.132 µM,–,–,–
COc1cnc2c(Cc3cnc(OCc4cn5c(n4)CN(C)CC5)c(OC)c3)ccnc2c1 [Example 94],0.014 µM,> 1000 nM,> 1 µM,–,–,–
COc1cnc2c(Cc3cnc(OCc4ccc(C5COC5)cn4)c(OC)c3)ccnc2c1 [Example 76],0.0136 µM,302 nM,0.0821 µM,–,–,–
COc1ccc(COc2ncc(C(C)c3ccnc4cc(OC)cnc34)cc2OC)nc1 (stereo not drawn) [Example 77],0.101 µM,543 nM,0.36 µM,–,–,–
COCc1ccc(COc2ncc(Cc3ccnc4cc(OC)cnc34)cc2OC)nc1 [Example 71],0.0254 µM,359 nM,0.168 µM,–,–,–
COc1cnc2c(Cc3cnc(OCc4cc5n(n4)C[C@H](C(F)(F)F)C5)c(OC)c3)ccnc2c1 [Example 110],0.0034 µM,109 nM,0.0362 µM,–,–,–
COc1cnc2c(Cc3cnc(OCc4ccc5cnn(C)c5n4)c(OC)c3)ccnc2c1 [Example 122],0.014 µM,131 nM,0.108 µM,–,–,–
COc1ccc2c(Cc3cnc(OCc4cnn(C)c4)c(OC)c3)ccnc2c1 [Example 31],0.0213 µM,> 1000 nM,> 1 µM,–,–,–
COc1ccc2c(Cc3ccc(OCc4ccc5ncnn5c4)c(OC)c3)ccnc2c1 [Example 21],0.0126 µM,509 nM,0.492 µM,–,–,–
COc1ccc2c(Cc3ccc(OCc4cc(C)on4)c(OC)c3)ccnc2c1 [Example 36],0.0398 µM,637 nM,0.486 µM,–,–,–
COc1cnc2c(Cc3cnc(OCc4cc5n(n4)CCOC5(C)C)c(OC)c3)ccnc2c1 [Example 99],0.0056 µM,59.1 nM,0.0517 µM,–,–,–
COc1cnc2c(Cc3cnc(OCc4cccc(N5CCC5)n4)c(OC)c3)ccnc2c1 [Example 118],0.0036 µM,96.9 nM,0.0345 µM,–,–,–
COc1ccc(COc2ncc(Cc3ccnc4cc(OC)ncc34)cc2OC)nc1 [Example 52],0.0497 µM,482 nM,0.209 µM,–,–,–
COc1ccc(COc2ncc(Cc3ccnc4cc(-c5ccccn5)cnc34)cc2OC)nc1 [Example 139],0.0113 µM,8.8 nM,0.0079 µM,–,–,–
COc1cnc2c(Cc3cnc(OCc4nc5cccnc5n4C)c(OC)c3)ccnc2c1 [Example 132],0.879 µM,> 1000 nM,> 1 µM,–,–,–
COc1cnc2c(Cc3cnc(OCc4ccc5nccn5n4)c(OC)c3)ccnc2c1 [Example 129],0.0427 µM,307 nM,0.166 µM,–,–,–
COc1ccc2c(Cc3ccc(OCc4cc(C)no4)c(OC)c3)ccnc2c1 [Example 34],0.0232 µM,493 nM,0.462 µM,–,–,–
COc1cnc2c(Cc3cc(OC)c4nc(N5CCC(OC)CC5)ncc4c3)ccnc2c1 [Example 150],0.947 µM,> 1000 nM,> 1 µM,–,–,–
COc1cnc2c(Cc3cnc(OCc4ccc(C(F)F)nc4)c(OC)c3)ccnc2c1 [Example 60],0.0054 µM,97.3 nM,0.0841 µM,–,–,–
COc1ccc(COc2ncc(Cc3ccnc4cc(F)cnc34)cc2OC)nc1 [Example 64],0.0218 µM,400 nM,0.973 µM,–,–,–
COc1cnc2c(Cc3cnc(OCc4ccc(C(F)(F)F)cn4)c(OC)c3)ccnc2c1 [Example 61],0.0039 µM,70.6 nM,0.0474 µM,–,–,–
"COc1ccc(COc2ncc(Oc3ccnc4cc(OC)cnc34)cc2OC)nc1 [Example 54, 3-methoxy-8-((5-methoxy-6-((5-methoxypyridin-2-yl)methoxy)pyridin-3-yl)oxy)-1,5-naphthyridine]",0.0871 µM,800 nM,0.317 µM,–,–,–
COc1ccc(COc2ncc(Cc3ccnc4cc(C(=O)N(C)C)cnc34)cc2OC)nc1 [Example 133],0.0588 µM,443 nM,0.312 µM,–,–,–
COc1cnc2c(Cc3cnc(OCc4ccc(C5CC5)cn4)c(OC(F)F)c3)ccnc2c1 [Example 69],0.203 µM,> 1000 nM,> 1 µM,–,–,–
COc1ccc(COc2ccc(Cc3ccnc4ccc(F)cc34)cc2OC)cc1 [Example 24],0.025 µM,177 nM,0.239 µM,–,–,–
COc1ccc(COc2ncc(Cc3ccnc4cc(OC)cnc34)cc2OC)cc1 [Example 38],0.0021 µM,210 nM,0.0408 µM,–,–,–

SMILES,IC50 (CSF-1R),"EC50 [1, 2]","EC50 (EOC2 cell; Mus musculus, 72 h)","EC50 [1, 3]",EC50 (EOC2 cell),"EC50 ([1]; BaF3, 72 h, read-out: CSF-1R BaF3 EC50 (nM))"
COc1ccc(COc2ncc(Cc3ccnc4ccc(OC)nc34)cc2OC)nc1 [Example 53],0.0601 µM,338 nM,0.278 µM,–,–,–
COc1cnc2c(Cc3cnc(OCc4cc(F)cnc4OC)c(OC)c3)ccnc2c1 [Example 41],0.0399 µM,> 1000 nM,> 1 µM,–,–,–
COc1cnc2c(Cc3cnc(OCc4cc5n(n4)C[C@@H](F)C5)c(OC)c3)ccnc2c1 [Example 128],0.0049 µM,21.5 nM,0.0049 µM,–,–,–
COc1cnc2c(Cc3cnc(OCc4ccc(=O)n(C)c4)c(OC)c3)ccnc2c1 [Example 67],0.0093 µM,> 1000 nM,> 1 µM,–,–,–
COc1cnc2c(Cc3cnc(OCc4cc5n(n4)CCCO5)c(OC)c3)ccnc2c1 [Example 86],0.0044 µM,290 nM,0.183 µM,–,–,–
COc1cnc2c(Cc3cnc(OCc4cnc5c(c4)CC[C@H]5OC)c(OC)c3)ccnc2c1 (stereo in doubt) [Example 104],0.0024 µM,–,0.041 µM,53.2 nM,–,–
COc1cnc2c(Cc3cnc(OCc4ccn5nccc5c4)c(OC)c3)ccnc2c1 [Example 147],0.0079 µM,60.9 nM,0.0788 µM,–,–,–
COc1ccc(COc2ncc(Cc3ccnc4cc(N5CC(OC)C5)cnc34)cc2OC)nc1 [Example 141],0.0071 µM,5.8 nM,0.0037 µM,–,–,–
"COc1ccc2c(Cc3ccc(OCc4ccn5ccnc5c4)c(OC)c3)ccnc2c1 [Example 6, 4-(4-(imidazo[1,2-a]pyridin-7-ylmethoxy)-3-methoxybenzyl)-7-methoxy quinoline]",0.0082 µM,551 nM,0.592 µM,–,–,–
COc1cnc2c(Cc3cnc(OCc4ccc(C5CN(C)C5)cn4)c(OC)c3)ccnc2c1 [Example 89],0.286 µM,> 1000 nM,> 1 µM,–,–,–
COc1ccc2c(Cc3ccc(OCc4ccc5nccn5c4)c(OC)c3)ccnc2c1 [Example 7],0.0053 µM,305 nM,0.328 µM,–,–,–
COc1cnc2c(Cc3cnc(OCc4cnc5c(c4)CC[C@H]5OC)c(OC)c3)ccnc2c1 (stereo in doubt) [Example 105],0.0024 µM,–,–,108 nM,0.065 µM,–
COc1cnc2c(Cc3cnc(OCc4cccn(C)c4=O)c(OC)c3)ccnc2c1 [Example 124],0.32 µM,> 1000 nM,0.442 µM,–,–,–
COc1ccc(COc2ncc(Cc3c(F)cnc4cc(OC)cnc34)cc2OC)nc1 [Example 146],0.208 µM,> 1000 nM,> 1 µM,–,–,–
COc1cnc2c(Cc3cnc(OCc4ccc(OC)nc4)c(OC)c3)ccnc2c1 [Example 39],0.001 µM,46.5 nM,0.0321 µM,–,–,–
COc1cnc2c(Cc3cnc(OCc4cccc(C(=O)N(C)C)n4)c(OC)c3)ccnc2c1 [Example 117],0.0211 µM,344 nM,0.171 µM,–,–,–
"COc1ccc(COc2ncc(Cc3ccnc4cc(-c5cnc(C)s5)cnc34)cc2OC)nc1 [Example 138, 5-(8-((5-methoxy-6-((5-methoxypyridin-2-yl)methoxy)pyridin-3-yl)methyl)-1,5-naphthyridin-3-yl)-2-methylthiazole]",0.0126 µM,–,0.0022 µM,–,–,1.8 nM
COc1cnc2c(Cc3cnc(OCc4cc(C5COC5)no4)c(OC)c3)ccnc2c1 [Example 90],0.0174 µM,282 nM,0.154 µM,–,–,–
"COc1cnc2c(Cc3cnc(OCc4cc(C)no4)c(OC)c3)ccnc2c1 [Example 46, 5-(((3-methoxy-5-((7-methoxy-1,5-naphthyridin-4-yl)methyl)pyridin-2-yl)oxy)methyl)-3-methylisoxazole]",0.0224 µM,332 nM,0.201 µM,–,–,–
COc1cnc2c(Cc3cnc(OCc4cc5n(n4)CCCOC5)c(OC)c3)ccnc2c1 [Example 107],0.0016 µM,65.9 nM,0.0371 µM,–,–,–
CCc1cc(COc2ncc(Cc3ccnc4cc(OC)cnc34)cc2OC)on1 [Example 57],0.019 µM,178 nM,0.0986 µM,–,–,–
COc1ccc(COc2ncc(Cc3ccnc4cc(-n5ccnc5C)cnc34)cc2OC)nc1 [Example 143],0.0157 µM,45.9 nM,0.0575 µM,–,–,–
COc1cnc2c(Cc3cnc(OCc4cc5n(n4)[C@H]4C[C@H]4C5)c(OC)c3)ccnc2c1 [Example 111],0.0022 µM,35 nM,0.0174 µM,–,–,–
COc1ccc2c(Cc3ccc(OCc4ccn5nccc5c4)c(OC)c3)ccnc2c1 [Example 30],0.0079 µM,214 nM,0.249 µM,–,–,–
COc1cnc2c(Cc3cnc(OCc4cc5n(n4)C(C)COC5)c(OC)c3)ccnc2c1 (stereo not drawn) [Example 103],0.0019 µM,41.7 nM,0.026 µM,–,–,–
COc1ccc2c(Cc3ccc(OCc4ccc5c(c4)OC(F)(F)O5)c(OC)c3)ccnc2c1 [Example 33],0.203 µM,218 nM,0.0895 µM,–,–,–
COc1ccc(COc2ncc(Cc3ccnc4cc(C)cnc34)cc2OC)nc1 [Example 63],0.0167 µM,236 nM,0.688 µM,–,–,–
